Data from patent US11364248B2 (AMGEN INC., priority 2017, dated 2022).

System: OPM-2
Test: Cell Viability Assay (OPM-2 10 FBS)
Format: cell-based, human
Conditions: OPM-2 cells, 16 h, CellTiter-Glo, read-out: OPM-2 10% FBS IC50 IP
Protocol: Cell Viability Assay (OPM-2 10 FBS)
The human multiple myeloma cell line, OPM-2, was cultured in complete growth medium containing RPMI 1640 and 10% fetal bovine serum (FBS). Cells were seeded into 384-well plates at 3000 cells/well density in complete growth medium containing 10% FBS, and incubated for 16 h with serially diluted test compounds in a 37° C. incubator with 5% CO2. Cell viability was tested using CellTiter-Glo® assay (Promega, Madison, Wis.) according to the manufacturer recommendations. Luminescence was determined using an EnVision® Multilabel plate reader 25 min after the addition of detection reagent. IC50 values were then calculated with Xlfit using a logistical 4-parameter fit model in GraphPad Prism (GraphPad Software, San Diego, Calif.) or in Genedata Screener® (Genedata, Basel, Switzerland).

`COCC[C@@H]1[C@@H](C)CCC[C@H]([C@H]2OC[C@@H](N(C)C)CO2)[C@@H]2CC[C@H]2CN2C[C@@]3(CCCc4cc(Cl)ccc43)COc3ccc(cc32)C(=O)NS1(=O)=O` (stereo in doubt) [Example 83] gave an IC50 of 540 nM.
For `C[C@@H]1[C@@H](C)CCC[C@H]([C@H]2OC[C@@H](N(C)C)CO2)[C@@H]2CC[C@H]2CN2C[C@@]3(CCCc4cc(Cl)ccc43)COc3ccc(nc32)C(=O)NS1(=O)=O` (stereo in doubt) [Example 93, (1S,3′R,6′R,7′S,11′S,12′R)-6-chloro-7′-(cis-5-(dimethylamino)-1,3-dioxan-2-yl)-11′,12′-dimethyl-3,4-dihydro-2H,15′H-spiro[naphthalene-1,22′-[20]oxo[13]thia[1,14,25]triazatetracyclo [14.7.2.0~3,6~.0~19,24~]pentacosa[16,18,24]trien]-15′-one 13′,13′-dioxide], the IC50 was 34 nM.
`C[C@@H]1[C@@H](C)CCC[C@H]([C@H]2OC[C@@H](N(C)C)CO2)[C@@H]2CC[C@H]2CN2C[C@@]3(CCCc4cc(Cl)ccc43)COc3ccc(nc32)C(=O)NS1(=O)=O` (stereo in doubt) [Example 94] was tested, and the IC50 was 257 nM.
In the case of `C[C@@H]1[C@@H](C)CCC[C@H]([C@H]2OC[C@@H](N(C)C)CO2)[C@@H]2CC[C@H]2CN2C[C@@]3(CCCc4cc(Cl)ccc43)COc3ccc(nc32)C(=O)NS1(=O)=O` (stereo in doubt) [Example 95], the IC50 is reported as 108 nM.
`C[C@@H]1[C@@H](C)CCC[C@H]([C@H]2OC[C@@H](N3CCC3)CO2)[C@@H]2CC[C@H]2CN2C[C@@]3(CCCc4cc(Cl)ccc43)COc3ccc(cc32)C(=O)NS1(=O)=O` [Example 20, (1S,3′R,6′R,7′S,11′S,12′R)-7′-(cis-5-(1-azetidinyl)-1,3-dioxan-2-yl)-6-chloro-11′,12′-dimethyl-3,4-dihydro-2H,15′H-spiro[naphthalene-1,22′-[20]oxa[13]thia[1,14]diazatetracyclo [14.7.2.0~3,6~.0~19,24~]pentacosa[16,18,24]trien]-15′-one 13′,13′-dioxide] was tested, and the IC50 was 41 nM.
In the case of `C[C@@H]1[C@@H](C)CCC[C@H]([C@H]2OC[C@@H](N3CCC3)CO2)[C@@H]2CC[C@H]2CN2C[C@@]3(CCCc4cc(Cl)ccc43)COc3ccc(cc32)C(=O)NS1(=O)=O` [Example 21, (1S,3′R,6′R,7′S,11′S,12′R)-7′-(cis-5-(1-azetidinyl)-1,3-dioxan-2-yl)-6-chloro-11′,12′-dimethyl-3,4-dihydro-2H,15′H-spiro[naphthalene-1,22′-[20]oxa[13]thia[1,14]diazatetracyclo [14.7.2.0~3,6~.0~19,24~]pentacosa[16,18,24]trien]-15′-one 13′,13′-dioxide], the IC50 is reported as 521 nM.
Molecule `C[C@@H]1[C@@H](C)CCC[C@H]([C@H]2OC[C@@H](N3CC(F)(F)C3)CO2)[C@@H]2CC[C@H]2CN2C[C@@]3(CCCc4cc(Cl)ccc43)COc3ccc(cc32)C(=O)NS1(=O)=O` [Example 31, (1S,3′R,6′R,7′S,11′S,12′R)-6-chloro-7′-(cis-5-(3,3-difluoro-1-azetidinyl)-1,3-dioxan-2-yl)-11′,12′-dimethyl-3,4-dihydro-2H,15′H-spiro[naphthalene-1,22′-[20]oxa[13]thia[1,14]diazatetracyclo [14.7.2.0~3,6~.0~19,24~]pentacosa[16,18,24]trien]-15′-one 13′,13′-dioxide] has an IC50 of 204 nM.
`C[C@@H]1[C@@H](C)CCC[C@H]([C@H]2OC[C@@H](N3CC(F)(F)C3)CO2)[C@@H]2CC[C@H]2CN2C[C@@]3(CCCc4cc(Cl)ccc43)COc3ccc(cc32)C(=O)NS1(=O)=O` [Example 32, (1S,3′R,6′R,7′S,11′S,12′R)-6-chloro-7′-(cis-5-(3,3-difluoro-1-azetidinyl)-1,3-dioxan-2-yl)-11′,12′-dimethyl-3,4-dihydro-2H,15′H-spiro[naphthalene-1,22′-[20]oxa[13]thia[1,14]diazatetracyclo [14.7.2.0~3,6~.0~19,24~]pentacosa[16,18,24]trien]-15′-one 13′,13′-dioxide] gave an IC50 of 1940 nM.
